Results on 83 compounds are retold here after article PMC12040169 (PLOS Biology, 2025).

A short description of the data set: in vitro. As to conditions: human, hela cells, % viability.
For the compound `CCc1nn(Cc2ccccn2)c(=O)c2cc3sc(C)cc3n12` [CBK284113], the viability at 28.5 h, 10 µM came out at 77%.
As for `CC(C)C(=O)N1CCC(Cn2nc(-c3ccccc3)ccc2=O)CC1` [CBK284114], the viability at 28.5 h, 10 µM came out at 83.1%.
Turning to `CCc1nn(CC(=O)N2CCCC2)c(=O)c2cc3ccsc3n12` [CBK284120], the viability at 28.5 h, 10 µM worked out at 84.2%.
Next, `CCc1nn(CC(=O)N2CCCC2)c(=O)c2cc3sc(C)cc3n12` [CBK284122]: 82.9%.
Next, `CCOC(=O)C(C)n1nc(CC)n2c(cc3sc(C)cc32)c1=O` (centres unmarked) [CBK284123]: 86%; `CCc1nn(CC(=O)NC(C)(C)C)c(=O)c2cc3sc(C)cc3n12` [CBK284124]: 83.9%.
In the case of `Cc1cc2c(cc3c(=O)n(CCN4CCCC4)nc(C)n32)s1` [CBK284126], the viability at 28.5 h, 10 µM turned out to be 95.5%.
As to `CCCNC(=O)Cn1nc(CC)n2c(cc3ccsc32)c1=O` [CBK284130], the viability at 28.5 h, 10 µM was determined as 91.5%.
Turning to `CCc1nn(CC(=O)N(CC)CC)c(=O)c2cc3ccsc3n12` [CBK284132], the viability at 28.5 h, 10 µM worked out at 88.2%.
`CCOC(=O)Cn1nc(CC)n2c(cc3ccsc32)c1=O` [CBK284133]: the viability at 28.5 h, 10 µM is 83.9%.
To `O=C(c1cscn1)N1C2CCC1CC(O)(c1ccco1)C2` (centres unmarked) [CBK284135] belongs 105%; to `CCc1nn(CC(=O)NC2CCC2)c(=O)c2cc3ccsc3n12` [CBK284136], 88.9%.
To `Cc1nn2c(C3CCCNC3)ccnc2c1-c1ccc(F)cc1` (centres unmarked) [CBK284139] belongs 78.8%; to `CCc1nn(Cc2ccncc2)c(=O)c2cc3sc(C)cc3n12` [CBK284140], 85.7%.
Next, `Cc1nn(CC(=O)N2CCCCC2C)c(=O)c2cc3sccc3n12` (centres unmarked) [CBK284141]: 70%; `CCc1nn(CC(=O)NC2CCC2)c(=O)c2cc3sc(C)cc3n12` [CBK284142]: 92.4%; `CCCc1nn(CC(=O)OC)c(=O)c2cc3ccsc3n12` [CBK284144]: 98.7%.
In the case of `CCCc1nn(CC(=O)N2CCCC2)c(=O)c2cc3ccsc3n12` [CBK284145], the viability at 28.5 h, 10 µM worked out at 85.5%.
To `CCCc1nn(CC(=O)NC(C)(C)C)c(=O)c2cc3ccsc3n12` [CBK284148] belongs 83.7%; to `C=CCn1c2cc(C)sc2c2cnn(CC(=O)NC3CC3)c(=O)c21` [CBK284149], 86.1%.
For `C=CCn1c2cc(C)sc2c2cnn(CC(=O)NC(C)C)c(=O)c21` [CBK284150], the viability at 28.5 h, 10 µM was determined as 89%.
Regarding `CCn1c2cc(C)sc2c2cnn(CC(=O)NC(C)(C)C)c(=O)c21` [CBK284152], the viability at 28.5 h, 10 µM came to 92.5%.
For `Cc1cc2c(s1)c1cnn(Cc3cccnc3)c(=O)c1n2C` [CBK284154], the viability at 28.5 h, 10 µM stood at 79.1%.
`Cc1cc2c(s1)c1cnn(CC(=O)NC(C)C)c(=O)c1n2C` [CBK284155]: the viability at 28.5 h, 10 µM is 79.7%.
In the case of `CCN(CC)C(=O)Cn1ncc2c3sc(C)cc3n(C)c2c1=O` [CBK284156], the viability at 28.5 h, 10 µM worked out at 92.9%.
`O=C(c1nccs1)C1CCN(C(=O)c2cccs2)CC1` [CBK284159]: the viability at 28.5 h, 10 µM amounted to 106%.
Regarding `O=C(c1nccs1)C1CCN(C(=O)Cc2ccc(Cl)cc2)CC1` [CBK284160], the viability at 28.5 h, 10 µM was determined as 84.1%.
On to `O=C(c1nccs1)C1CCN(C(=O)Cc2ccccc2Cl)CC1` [CBK284162], for which the viability at 28.5 h, 10 µM is 87.4%.
With `C=CCn1c2cc(C)sc2c2cnn(CC(=O)OC)c(=O)c21` [CBK284166], the viability at 28.5 h, 10 µM worked out at 89.3%.
On to `CCN(CC)C(=O)Cn1ncc2c3sc(C)cc3n(CC)c2c1=O` [CBK284167], for which the viability at 28.5 h, 10 µM came to 99.3%.
Next, `CCn1c2cc(C)sc2c2cnn(Cc3cccnc3)c(=O)c21` [CBK284169]: 86.6%; `CCn1c2cc(C)sc2c2cnn(CC(=O)NC(C)C)c(=O)c21` [CBK284172]: 85.8%; `CCn1c2cc(C)sc2c2cnn(CC(=O)N(C)C)c(=O)c21` [CBK284173]: 85%.
To `O=C(c1nccs1)C1CCN(C(=O)c2ccccc2F)CC1` [CBK284174] belongs 93.3%; to `CC(C)(C)C(=O)N1CCC(n2nc(-c3cccs3)ccc2=O)CC1` [CBK284182], 92.9%.
With `CCc1nn(CC(=O)NC(C)(C)C)c(=O)c2cc3ccsc3n12` [CBK284183], the viability at 28.5 h, 10 µM came to 105%.
For `Cc1cc2nccc(C3CCCN(C(=O)c4ccccc4F)C3)n2n1` (centres unmarked) [CBK284184], the viability at 28.5 h, 10 µM was 97.2%.
To `CCOC(=O)Cn1ncc2c3sc(C)cc3n(CC)c2c1=O` [CBK284185] belongs 87.1%; to `Cc1cc2c(s1)c1cnn(CC(=O)N3CCCCC3)c(=O)c1n2C` [CBK284187], 82.3%; to `Cc1cc2c(s1)c1cnn(Cc3ccncc3)c(=O)c1n2C` [CBK284188], 86.4%.
Consider `CC1CCN(C(=O)Cn2ncn3c(cc4ccsc43)c2=O)CC1` [CBK284190], for which the viability at 28.5 h, 10 µM was found to be 101%.
Next, `CC1CCCC(C)N1C(=O)Cn1ncn2c(cc3ccsc32)c1=O` (centres unmarked) [CBK284191]: 110%; `CCCc1nn(CC(=O)N(CC)CC)c(=O)c2cc3ccsc3n12` [CBK284192]: 81.3%; `CCCc1nn(CC(=O)NC2CCC2)c(=O)c2cc3ccsc3n12` [CBK284194]: 89.1%.
For the compound `O=C(Cn1ncn2c(cc3ccsc32)c1=O)N1CCCCC1` [CBK284195], the viability at 28.5 h, 10 µM turned out to be 85.2%.
Next, `CC1CCCCC1NC(=O)Cn1ncn2c(cc3ccsc32)c1=O` (centres unmarked) [CBK284196]: 91.8%.
Next, `O=C(Cn1ncn2c(cc3ccsc32)c1=O)NCc1cccs1` [CBK284197]: 90.3%; `CC1CCCCN1C(=O)Cn1ncn2c(cc3ccsc32)c1=O` (centres unmarked) [CBK284201]: 92.1%; `O=c1ccc(-c2ccccc2)nn1CC1CCNCC1` [CBK284203]: 98.6%.
Turning to `COC(=O)CN1N=C(C(C)(C)C)Cn2c(cc3ccccc32)C1=O` [CBK284204], the viability at 28.5 h, 10 µM came out at 95.5%.
For the compound `O=C(c1nccs1)C1CCN(C(=O)CC2CCCC2)CC1` [CBK284207], the viability at 28.5 h, 10 µM was determined as 107%.
As for `C#CCN1N=C(c2ccc(OC)cc2)Cn2c(cc3sccc32)C1=O` [CBK284209], the viability at 28.5 h, 10 µM stood at 91.2%.
To `CC(C)(C)C(=O)N1CCC(c2[nH]ncc2-c2ccncc2)CC1` [CBK284211] belongs 88.2%; to `O=C(C1CC=CCC1)N1CCC(c2[nH]ncc2-c2ccncc2)CC1` (centres unmarked) [CBK284212], 84%; to `CCn1c2cc(C)oc2c2cnn(CC(=O)N3CCCCC3)c(=O)c21` [CBK284220], 90.2%.
Regarding `Cc1cc2c(s1)c1cnn(CC(=O)NCC3CC3)c(=O)c1n2C` [CBK284222], the viability at 28.5 h, 10 µM worked out at 91.2%.
As to `C#CCn1ncc2c3sc(C)cc3n(CC)c2c1=O` [CBK284225], the viability at 28.5 h, 10 µM turned out to be 89.5%.
With `CCc1nn2c(C3CCNCC3)ccnc2c1-c1cccs1` [CBK284226], the viability at 28.5 h, 10 µM was 80.4%.
In the case of `Cc1cc2c(s1)c1cnn(Cc3ccccn3)c(=O)c1n2C` [CBK284227], the viability at 28.5 h, 10 µM was found to be 65.4%.
In the case of `Cc1cc2c(o1)c1cnn(CC(=O)N3CCCC3)c(=O)c1n2C(C)C` [CBK284232], the viability at 28.5 h, 10 µM was 89%.
Next, `O=C(c1nc2ccccc2s1)C1CCN(C(=O)c2ccco2)CC1` [CBK284234]: 83.6%; `O=c1[nH]nc2c3c4c(sc3ncn12)CCCC4` [CBK284235]: 56.8%; `Cc1cc2c(o1)c1cnn(CC(=O)N3CCC(C)CC3)c(=O)c1n2C` [CBK284236]: 83.9%.
Next, `CC(C)C(=O)N1CCC(c2[nH]ncc2-c2ccncc2)CC1` [CBK284237]: 79.6%; `O=C(C1CCCCC1)N1CCC(n2nc(C3CC3)ccc2=O)CC1` [CBK284240]: 90.7%; `CC(C)(C)C(=O)N1CCC(n2nc(C3CC3)ccc2=O)CC1` [CBK284242]: 84.6%.
As for `CC(C)C(=O)N1CCC(n2nc(-c3ccco3)ccc2=O)CC1` [CBK284244], the viability at 28.5 h, 10 µM was 83.8%.
As to `CC(=O)N1CCC[C@H]1Cn1nc(-c2cccs2)ccc1=O` [CBK284249], the viability at 28.5 h, 10 µM was determined as 78.1%.
For the compound `O=C(C1CC1)N1CCC[C@H]1Cn1nc(-c2ccc(F)cc2)ccc1=O` [CBK284252], the viability at 28.5 h, 10 µM is 79.8%.
Regarding `COc1cccc(CN2CCN(C(=O)c3cc(C)[nH]c3C)[C@@H](C)C2)c1` [CBK284255], the viability at 28.5 h, 10 µM is 99.1%.
Regarding `COC(=O)[C@H]1CCc2ccccc2N1C(C)=O` [CBK284256], the viability at 28.5 h, 10 µM was 90.2%.
As to `COC(=O)[C@H]1CCc2ccccc2N1C(=O)c1ccco1` [CBK284259], the viability at 28.5 h, 10 µM came to 84.5%.
As for `Cc1ncsc1C(=O)N1CCC[C@H](C(=O)c2cccs2)C1` [CBK284260], the viability at 28.5 h, 10 µM stood at 80.2%.
With `COc1cccc(CN2CCN(Cc3ccco3)[C@@H](C)C2)c1` [CBK284265], the viability at 28.5 h, 10 µM was 80.3%.
`COc1cccc(CN2CCN(C(=O)N3CCCCC3)[C@@H](C)C2)c1` [CBK284266]: the viability at 28.5 h, 10 µM was 95%.
In the case of `CCN(CC)C(=O)N1CCN(Cc2cccc(OC)c2)C[C@@H]1C` [CBK284268], the viability at 28.5 h, 10 µM came out at 78.8%.
To `O=C(NCc1ccco1)[C@@H]1C=CCN1C(=O)Nc1ccccc1Cl` [CBK284269] belongs 84.3%; to `CC(C)[C@H]1CN(Cc2ccco2)CCN1Cc1ccco1` [CBK284271], 79.3%.
Consider `CC(C)[C@H]1CN(Cc2ccco2)CCN1C(=O)N1CCCCC1` [CBK284272], for which the viability at 28.5 h, 10 µM amounted to 87.6%.
`CC(C)[C@H]1CN(Cc2ccco2)CCN1C(=O)N1CCOCC1` [CBK284273]: the viability at 28.5 h, 10 µM was determined as 82.2%.
As for `CC(C)[C@H]1CN(Cc2ccco2)CCN1C(=O)NCc1ccccc1` [CBK284274], the viability at 28.5 h, 10 µM is 99.6%.
Next, `CC(C)[C@H]1CN(Cc2ccco2)CCN1Cc1ccccn1` [CBK284275]: 112%; `O=C(NC1CC1)[C@@H]1C=CCN1C(=O)Nc1ccccc1C(F)(F)F` [CBK284276]: 98.1%.

As usually defined, the viability is a read-out of living cells in per cent, often relative to untreated cells.
